The values below are quoted from earlier work in EP1156371A2, “Replenishing method of planographic printing plate developer” (FUJI PHOTO FILM CO., LTD., priority 2000, dated 2001).

The conditions of the data set: dissociation constant of weak acid, aqueous solution.
Regarding `CC(P(=O)(O)O)P(=O)(O)O` [1,1-ethylidene diphosphonic acid], the pKa (usually the pH at which an ionisable group is half protonated) is 11.54. As for `Oc1ccc(O)c(O)c1` [1,2,4-trihydroxybenzene], the pKa is listed as 11.82.

`CC(O)(P(=O)(O)O)P(=O)(O)O` [1-hydroxy 1-ethylidene diphosphonate]: the pKa is recorded as 11.52. Take `OCC(F)(F)C(F)F` [2,2,3,3-tetrafluoropropanol-1]: the pKa is 12.74.

For `CCC(C)=NO` [2-butanone oxime], the pKa is listed as 12.45.

For `ON=Cc1ccccc1O` [2-hydroxybenzaldehyde oxime], the pKa is 12.10. As to `O=C(O)c1ccc(O)c(O)c1` [3,4-duhydroxybenzoic acid], the pKa is on record as 11.94. Take `O=C(O)c1cc2ccccc2cc1O` [3-hydroxy-2-naphthoic acid]: the pKa is recorded as 12.84. As to `CC(=NO)c1ccccc1` [acetophenone oxime], the pKa is 11.35. `CC(C)=NO` [acetoxime]: the pKa was 12.42. With `Nc1ncnc2c1ncn2[C@@H]1O[C@H](CO)[C@@H](O)[C@H]1O` [adenosine], the pKa is recorded as 12.56. With `O=C1CC(=O)NC(=O)N1` [barbituric acid], the pKa is listed as 12.5. As for `c1ccc2[nH]cnc2c1` [benzimidazole], the pKa is 12.86. On to `Oc1ccccc1O` [catechol], for which the pKa is given as 12.6. On to `CC(=NO)C(C)=NO` [dimethyl glyoxime], for which the pKa is recorded as 11.9. For the compound `NC(=N\O)/C(N)=N/O` [ethanediamide dioxime], the pKa is 11.37.

Take `Oc1ccc(O)cc1` [hydroquinone]: the pKa is on record as 11.56. For `OC[C@H]1O[C@@H](n2cnc3c(O)ncnc32)[C@H](O)[C@@H]1O` [inosine], the pKa is 12.5.

In the case of `CC(C)(P(=O)(O)O)P(=O)(O)O` [isopropylidene diphopshonic acid], the pKa is listed as 12.10.

As to `Cc1cccc(O)c1` [m-cresol], the pKa was 10.09. `Cc1ccccc1O` [o-cresol]: the pKa is 10.33. `O=Cc1ccccn1` [pyridine-2-aldehyde]: the pKa was 12.68. For `O=Cc1ccncc1` [pyridine-4-aldehyde], the pKa is reported as 12.05. For `Oc1cccc(O)c1O` [pyrogallol], the pKa is recorded as 11.34. Take `Oc1cccc(O)c1` [resorcinol]: the pKa is 11.27. With `O=C(O)c1cc(S(=O)(=O)O)ccc1O` [sulfosalicylic acid], the pKa was 11.7. For the compound `NC(=S)c1ccccc1` [thiobenzamide], the pKa is on record as 12.8.

For the compound picoline thioamide, the pKa is reported as 12.55.
